Assay results as given in patent US20240261426A1, “CONJUGATES COMPRISING PHOSPHOANTIGENS AND THEIR USE IN THERAPY” (BYONDIS B.V., priority 2021, published 2024).

Assays:
Raji cells [1] = experiment: Direct compound-related cell death (CellTiter-Glo, 6 days); type: cell-based, human; details: 6 days incubation, positive control
Experimental: Metabolic activity was assessed after 6 days, using the CellTiter-Glo™ (CTG) luminescent assay kit from Promega Corporation (Madison, WI) according to the manufacturer's instructions. Cell viability was expressed as the percentage survival relative to the average mean of untreated cells or vehicle-treated cells (only growth medium or 1% DMSO) multiplied with 100. The efficacy was calculated by subtracting the bottom of the dose response curve (DRC) from 100%.

Raji cells [2] = experiment: Cellular binding to Raji cells (flow cytometry); parameters: species or system human
Experimental: Raji cells were cultured as described in Example 23. […] After an incubation time of 30 minutes at 4° C., the cells were washed twice with ice-cold FACS buffer. […] After 30 minutes at 4° C., cells were washed twice and resuspended in 150 μL ice-cold FACS buffer. Fluorescence intensities were determined by flow cytometry using the FACSVerse or FACSymphony (BD Biosciences) and indicated as the median fluorescence intensity (MFI). Curves were fitted by nonlinear regression with a variable slope (four parameters) in GraphPad Prism version 9. EC50 values were calculated in GraphPad Prism as the concentration in μg/mL that gives a response halfway between bottom and top of the curve. Binding experiments were performed N=2 or N=3 times.

Vδ2 γδ T-cells [3] = experiment: Functional assay with pretreated MOLM-13 or Raji cells, different DAR (CD107a); type: cell-based, human
Experimental: The functional assay was performed as disclosed in Example 23, with the exception that Raji and MOLM-13 cells were pretreated for 16 or 40 hours with antibodies/ADCs/controls (Table 13). Furthermore, CD107a degranulation levels were determined only and not IFNγ expression levels. Thus, on the third experimental days, cells were directly analyzed on the BD FACSymphony A3 Cell analyzer (BD Biosciences, San Jose, CA, USA), before incubation with BD Perm/wash. […] EC50 values were calculated in GraphPad Prism as the concentration in μg/mL that gives a response half way between bottom and top of the curve. […] Raji cells were cultured as described in Example 23. The CD123-positive acute monocytic leukemia cell line MOLM-13 (DSMZ, ACC 554, the German collection of Microorganisms and cell cultures GmbH (Leibniz Institute, Germany)) was cultured in CGM and was maintained at 37° C. in a humidified incubator containing 5% CO2 and sub-cultured twice a week.

Vδ2 γδ T-cells [4] = experiment: Functional assay with pretreated CD20 positive B-cell lines (CD107a read-out); type: cell-based, human; details: all tested B-cell lines (Raji, HG-3, MEC-1, SU-DHL-4, SU-DHL-8)
Vδ2 γδ T-cells [5] = experiment: Functional assay with pretreated HER2-positive cell lines; type: cell-based, human; details: pretreated HCT-116 cells (low HER2)
Vδ2 γδ T-cells [6] = experiment: Functional assay: Vδ2 γδ T-cell activation (CD107a, IFNγ, TNFα) after co-culture of PBMCs with pretreated Raji cells; type: cell-based, human; details: for IFNγ production and degranulation of Vδ2 γδ T-cells compared to pretreatment with HMBPP: pre-treated Raji cells; for IFNγ production and degranulation (CD107a) of Vδ2 γδ T-cells, in words: pretreated Raji cells co-cultured with PBMCs
Experimental: (§1) To determine (unconjugated) phosphoantigen prodrug activity, Raji target cells were pre-incubated with XC1 and XD1, prior to co-culture with peripheral blood mononuclear cells (PBMCs) containing effector cells. Selective gammadelta T-cell activation was studied in vitro after co-culture of PBMCs with tumor cells (from the CD20-positive Burkitt's Lymphoma human tumor cell line Raji) pretreated with phosphoantigen HMBPP, phosphoantigen prodrugs XC1, XD1, or the conjugates listed in Table 1.
(§2) The CD20-positive Burkitt's Lymphoma human tumor cell line Raji (DSMZ, the German collection of Microorganisms and cell cultures GmbH (Leibniz Institute, Germany)) was used for in vitro experiments. Raji cells were cultured in complete growth medium (CGM): RPMI-1640 (Lonza, Walkersville, MD, USA) supplemented with 10% Heat-inactivated (HI) Fetal Bovine Serum (FBS) (Gibco-Life Technologies; Carlsbad, CA) and 80 U/mL Penicillin-Streptomycin solution (Lonza Group Ltd, Basel Switzerland). Raji cells were maintained at 37° C. in a humidified incubator containing 5% CO2 and sub-cultured twice a week.
For stimulation with conjugates according to the invention (ADCs), unconjugated phosphoantigen prodrugs and HMBPP, Raji cells were harvested, diluted to a concentration of 5×10^6 cells/mL and 50 μL (equivalent to 250.000 cells/well) of this cell suspension was seeded into a 96-well plate. A 2-times concentrated, 10-fold serial dilution of the prodrugs and ADC was prepared in CGM. Plated Raji cells were incubated overnight (O/N) in a humidified incubator with 5% CO2 at 37° C. with 50 μL/well of the serially-diluted compounds.
The following day, the 96 well plate with Raji cells and compounds (ADCs, unconjugated phosphoantigen prodrugs or HMBPP) was washed by adding 100 μL/well CGM, centrifugation at 300×g for 3 minutes at room temperature (RT), and removal of supernatant in order to remove excessive unbound compound.
As a source of immune cells, frozen peripheral blood mononuclear cells (PBMCs) of a healthy human donor were thawed, resuspended in CGM and placed O/N in a humidified incubator with 5% CO2 at 37° C. to let the cells recover.
The recovered PBMCs were harvested, counted and diluted to a concentration of 10×10^6 cells/mL in CGM, and 50 μL/well (equivalent to 0.5×10^6 cells/well) was added to the Raji cells. […] In all experiments, 1% Phytohemagglutinin (PHA-M, Gibco-ThermoFisher), known as an aspecific activator of immune cells, was also included in a well to serve as a positive control. Samples were incubated for 6 hours in a humidified incubator with 5% CO2 at 37° C. […]

[7] = test system: NK cells, CD8+ T-cells, Vδ1 γδ T-cells; experiment: Functional assay: activation of other immune cells after co-culture of PBMCs with pretreated Raji cells; type: cell-based, human; details: pretreated Raji cells co-cultured with PBMCs; PHA-M added to co-culture
Experimental: as §1
as §2, with “week. […]” for “week.”
The recovered PBMCs were harvested, counted and diluted to a concentration of 10×10^6 cells/mL in CGM, and 50 μL/well (equivalent to 0.5×10^6 cells/well) was added to the Raji cells. […]

[8] = target: T1, CD20 on Raji cells (CD20-positive Burkitt's Lymphoma human tumor cell line) (human, UniProt P11836 1-297); experiment: flow cytometry on CD20-positive Raji cells, APC anti-human IgG F(ab')2 secondary, MFI curve fit; experiment 3 and 4
T1 construct: whole, on cells
T1 sequence (looked up): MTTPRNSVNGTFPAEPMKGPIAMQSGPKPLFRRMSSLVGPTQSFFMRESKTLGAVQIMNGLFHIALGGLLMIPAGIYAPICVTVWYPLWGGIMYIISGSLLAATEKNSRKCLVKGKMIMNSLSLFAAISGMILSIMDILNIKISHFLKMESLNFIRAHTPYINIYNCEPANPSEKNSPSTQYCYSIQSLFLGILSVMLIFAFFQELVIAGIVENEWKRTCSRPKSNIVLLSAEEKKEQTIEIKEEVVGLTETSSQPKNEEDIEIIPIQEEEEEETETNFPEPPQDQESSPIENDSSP

[9] = target: T1, CD20 on Raji cells (CD20-positive …); experiment: flow cytometry on CD20-positive Raji cells, APC anti-human IgG F(ab')2 secondary, MFI curve fit; experiment 5, 6 and 7
[10] = target: T1, CD20 on Raji cells (CD20-positive …); experiment: flow cytometry on CD20-positive Raji cells, APC anti-human IgG F(ab')2 secondary, MFI curve fit; experiment 1 and 2

COC(=O)c1cc2c([nH]1)C(=O)C=C1N(C(=O)c3cc4cc(OC)c(OC)c(OC)c4[nH]3)C[C@H]3C[C@]123 [duocarmycin type toxin]
direct compound related cell death, in words (Raji cells [1]): very effective

rituximab: Anti-CD20 monoclonal antibody (MoAb) [reference compound]
Binding to Raji cells EC50 (Raji cells [2]; Experiment 1 and 2): 0.6 µg/mL
Binding to Raji cells EC50 (Raji cells [2]; Experiment 3 and 4): 1.221 µg/mL
Binding to Raji cells EC50 (Raji cells [2]; Experiment 5, 6 and 7): 3.451 µg/mL

C/C(=C\COP(=O)(O)OP(=O)(O)O)CO [HMBPP, (E)-4-Hydroxy-3-methyl-but-2-enyl pyrophosphate]
Vδ2 γδ T-cell activation, in words (Vδ2 γδ T-cells [3]): capable of activating Vδ2 γδ T-cells
activation (degranulation) of Vδ2 γδ T-cells, in words (Vδ2 γδ T-cells [4]): induced degranulation of Vδ2 γδ T-cells
activation of Vδ2 γδ T-cells, in words (Vδ2 γδ T-cells [5]): able to activate Vδ2 γδ T-cells

C/C(=C\CCP(=O)(OCOC(=O)C(C)(C)C)OCOC(=O)C(C)(C)C)CO [XC1]
IFNγ production and degranulation of Vδ2 γδ T-cells compared to pretreatment with HMBPP (Vδ2 γδ T-cells [6]): more potently induced
IFNγ production and degranulation (CD107a) of Vδ2 γδ T-cells, in words (Vδ2 γδ T-cells [6]): dose-dependently induced IFNγ production and degranulation
activation of other immune cells (NK cells, CD8+ T-cells, Vδ1 γδ T-cells), in words [7]: without inducing direct activation of other immune cells

C/C(=C\CCP(=O)(N[C@@H](C)C(=O)OCc1ccccc1)Oc1ccccc1)CO (stereo partly shown) [XD1]
IFNγ production and degranulation of Vδ2 γδ T-cells compared to pretreatment with HMBPP (Vδ2 γδ T-cells [6]): more potently induced
IFNγ production and degranulation (CD107a) of Vδ2 γδ T-cells, in words (Vδ2 γδ T-cells [6]): dose-dependently induced IFNγ production and degranulation
activation of other immune cells (NK cells, CD8+ T-cells, Vδ1 γδ T-cells), in words [7]: without inducing direct activation of other immune cells

B1: rituximab (anti-CD20 monoclonal antibody) (antibody, V domains shown)
VH: QVQLQQPGAELVKPGASVKMSCKASGYTFTSYNMHWVKQTPGRGLEWIGAIYPGNGDTSYNQKFKGKATLTADKSSSTAYMQLSSLTSEDSAVYYCARSTYYGGDWYFNVWGAGTTVTVSA
VL: QIVLSQSPAILSASPGEKVTMTCRASSSVSYIHWFQQKPGSSPKPWIYATSNLASGVPVRFSGSGSGTSYSLTISRVEAEDAATYYCQQWTSNPPTFGGGTKLEIK
EC50 [8]: 1.22 µg/mL
EC50 [9]: 3.45 µg/mL
EC50 [10]: 0.6 µg/mL
